Measurements as given in publication PMC11259064, “Enhanced binding of guanylated poly(A) RNA by the LaM domain of LARP1” (RNA Biology, 2024).
Where “and” joins values, the source holds several entries; their conditions need not be identical. Equal values may be shown once.

What was measured:
[1] = molecular target: T1, human LARP1 LaM domain (residues 323–410) (Homo sapiens, UniProt Q6PKG0); experiment: Isothermal titration calorimetry (ITC) of RNA ligands binding LARP1 (323-410); settings: for Rel. aff. (affinity relative to AAAAAA): Figure 2B, higher = tighter binding than A6; for binding to the LaM domain by ITC (in words): LaM 40 μM in cell, cyclic dinucleotide 730-860 μM in syringe
T1 construct: human LARP1 LaM domain (residues 323–410); made in house; host or cells: E. coli
Procedure: ITC experiments were performed on the VP-ITC titration calorimeter (Malvern Instruments Ltd) except where noted. […] All experiments were carried out at 20°C with 29 injections of 10 µl. Results were analysed using ORIGIN software (MicroCal) and fitted to a binding model with a single set of identical sites, except where noted.

LARP1 323-410 Q333A [2] = molecular target: T2, LARP1 323-410 Q333A (Homo sapiens, UniProt Q6PKG0); experiment: ITC of RNA ligands binding LARP1 323-410 Q333A; settings: Q333A mutant; LaM 30 (cell), RNA 300-600 (syringe)
T2 construct: ITC Data Collection and Analysis for LARP1 323-410 Q333A; His-tag; made in house; host or cells: E. coli
Procedure: (§1) ITC experiments were performed on the VP-ITC titration calorimeter (Malvern Instruments Ltd) except where noted. The syringe was loaded with 300 µM RNA sample, while the sample cell contained 20–30 µM LARP1 (323–410) sample. All experiments were carried out at 20°C with 29 injections of 10 µl. Results were analysed using ORIGIN software (MicroCal) and fitted to a binding model with a single set of identical sites, except where noted.
(§2) Table S3. ITC Data Collection and Analysis for LARP1 323-410 Q333A
(§3) RNA Kd, nM relative to DH, kcal mol-1 DS, cal mol-1 K-1 Conc., µM
(§4) 1Data acquired on iTC200 (Malvern Instruments Ltd).

LARP1 323-410 Q333A [3] = molecular target: T3, LARP1 323-410 Q333A (Homo sapiens, UniProt Q6PKG0, Q410A); experiment: ITC of RNA ligands binding LARP1 323-410 Q333A; settings: Q333A mutant
T3 construct: ITC Data Collection and Analysis for LARP1 323-410 Q333A; His-tag; made in house; host or cells: E. coli
Procedure: as §1, §2, §3, §4

[4] = molecular target: T1, human LARP1 LaM domain (residues 323–410); settings: ITC of RNA oligonucleotides; cited from earlier work
[5] = molecular target: T1, human LARP1 LaM domain (residues 323–410); experiment: NMR titration of single nucleotides into 15N-labelled LARP1 (323-410), chemical shift changes; type: binding; settings: for Kd: 0.1 mM 15N-LARP1 (323-410), 10 mM MES pH 6.3, 100 mM NaCl, 25°C, fit accounts for bound ligand, two nucleotide binding sites, read-out: Kd, binding affinity estimated from chemical shift change (I364 amide) as a function of nucleotide concentration
Procedure: We carried out NMR titrations with single nucleotides binding to^15N-labelled LARP1 LaM to isolate the individual nucleotide interactions (Figure 1A). The addition of nucleotides caused spectral changes similar to those observed with the hexamer A6 but with smaller shifts and fewer signals affected (Suppl. Figure S1). […] The signals with the largest changes were the amide of Ile364 and side chain amides of Gln333.
At 200 µM, 5´-GMP shifted the Gln333 signal twice as much as 5´-AMP. […] We used the size of the chemical shift change as a function of nucleotide concentration to estimate binding affinities (Figure 1C). […] This had the advantage that it also provided an estimate of the binding stoichiometry. For 5´-GMP, the stoichiometry was measured to be 2.04 with an affinity of 40 µM. […] This is at odds with the affinities of oligonucleotides measured by isothermal titration calorimetry (ITC).
NMR samples were exchanged into 10 mM MES pH 6.3, 100 mM NaCl, 1 mM TCEP. For NMR titrations, nucleotides were added to 0.1 mM^15N-labelled LARP1 (323–410) to final molar ratios of 5:1. All NMR experiments were performed at 25°C using a Bruker 600 MHz spectrometer. NMR spectra were processed using NMRPipe and analysed with SPARKY [51]. Binding affinities were measured by fitting the observed chemical shift changes accounting for bound ligand with a stoichiometry of two nucleotide binding sites.

[6] = ITC, 20°C, LaM 20-30 µM in cell, RNA 300 µM in syringe, single set of identical sites, read-out: Kd
[7] = ITC, 20°C, LaM in cell, RNA in syringe
[8] = Table S1, LaM in cell, RNA in syringe
[9] = ITC, 20°C, LaM in cell, RNA in syringe, read-out: Kd
[10] = reversed titration: RNA 15 (cell), LaM 300 (syringe)

For 5´-APAPAPAPAPA-3´ [AAAAAA], the “Rel. aff. (affinity relative to AAAAAA)” value [1] was 1.0, the Kd [1, 6] was 0.25 µM and the ΔH [1, 7] was -19.9 kcal/mol. For the same molecule, the ΔS [1, 7] was -37.6 cal mol^-1 K^-1 and the “Affinity relative to A6” value [1, 8] was 1.

With 5´-APAPAPAPAPG-3´ [AAAAAG] the “Rel. aff. (affinity relative to AAAAAA)” value [1] was 1.9, the Kd [1, 6] was 0.13 ± 0.02 µM and the ΔH [1, 7] was -27.5 kcal/mol. For the same molecule, the ΔS [1, 7] was -62.3 cal mol^-1 K^-1, the Kd (LARP1 323-410 Q333A [2]) was 19 ± 2 µM and the ΔH (LARP1 323-410 Q333A [3]) was -27.8 kcal/mol. For the same molecule, the ΔS (LARP1 323-410 Q333A [3]) was -73.2 cal mol-1 K-1.

With 5´-APAPAPAPAPSA-3´ [(RP)-AAAAAPSA] the Kd [1, 6] was 0.29 µM, the ΔH [1, 7] was -19.4 kcal/mol and the ΔS [1, 7] was -36.2 cal mol^-1 K^-1. For the same molecule, the “Affinity relative to A6” value [1, 8] was 1.16.

For 5´-APAPAPAPAPSA-3´ [(SP)-AAAAAPSA], the ΔH [1, 7] was -23.1 kcal/mol, the ΔS [1, 7] was -57.1 cal mol^-1 K^-1 and the Kd [1, 9] was 17 µM. The “fold lower affinity of the (SP)-phosphorothioate” value ([1]; ITC, Figure 5D, compared with the (RP)-phosphorothioate) was 60 fold and the “Affinity relative to A6” value [1, 8] was 68.

In the case of 5´-APAPAPAPGPA-3´ [AAAAGA], the “Rel. aff. (affinity relative to AAAAAA)” value [1] is reported as 3.2, the ΔH [1, 7] is reported as -29.5 kcal/mol and the ΔS [1, 7] is reported as -68.0 cal mol^-1 K^-1. The “Affinity relative to A6” value [1, 8] was 0.32, the Kd (LARP1 323-410 Q333A [2]) was 10 ± 6 µM and the ΔH (LARP1 323-410 Q333A [3]) was -10.2 kcal/mol. The ΔS (LARP1 323-410 Q333A [3]) was -11.9 cal mol-1 K-1.

For 5´-APAPAPGPAPA-3´ [AAAGAA], the “Rel. aff. (affinity relative to AAAAAA)” value [1] was 1.8, the Kd [1, 6] was 0.14 ± 0.02 µM and the ΔH [1, 7] was -27.7 kcal/mol. For the same molecule, the ΔS [1, 7] was -63.2 cal mol^-1 K^-1 and the “Affinity relative to A6” value [1, 8] was 0.56.

In the case of 5´-APG-3´ [AG], the ΔH [1, 7] is reported as -23.9 kcal/mol, the ΔS [1, 7] is reported as -56.2 cal mol^-1 K^-1 and the Kd [1, 9] is reported as 3.1 µM and ~3 µM. For the same molecule, the “Affinity relative to A6” value [1, 8] was 12.4.

In the case of 5´-GPG-3´ [GG], the Kd ([1]; ITC, 20°C, LaM 20-30 µM in cell, RNA 300 µM in syringe, single set of identical sites) is reported as “not fitted”, the Kd [1, 7] is reported as “Not fittable” and the “Affinity relative to A6” value ([1]; Table S1, reversed titration: RNA 15 (cell), LaM 300 (syringe)) is reported as 11.2. For the same molecule, the Kd ([1]; reversed titration: GG (15 µM) in cell + LaM (300 µM) in syringe, read-out: Kd) was 2.8 µM and ~3 µM, the ΔH [1, 10] was -34.1 kcal/mol and the ΔS [1, 10] was -91.1 cal mol-1 K-1.

In the case of 5´-UPUPUPUPUPU-3´ [UUUUUU], the Kd [1, 6] is reported as 1.8 ± 0.1 µM, the ΔH [1, 7] is reported as -21.4 kcal/mol and the ΔS [1, 7] is reported as -46.6 cal mol^-1 K^-1. For the same molecule, the “Affinity relative to A6” value [1, 8] was 7.2, the Kd (LARP1 323-410 Q333A [2]) was 100 ± 30 µM and the ΔH (LARP1 323-410 Q333A [3]) was -11.0 kcal/mol. For the same molecule, the ΔS (LARP1 323-410 Q333A [3]) was -19.2 cal mol-1 K-1 and the “fold weaker binding affinity than A6” value [4] was 11 fold.

For `Nc1nc2c(ncn2[C@@H]2O[C@@H]3COP(=O)(O)O[C@H]4[C@@H](O)[C@H](n5cnc6c(N)ncnc65)O[C@@H]4COP(=O)(O)O[C@H]3[C@H]2O)c(=O)[nH]1` [3',3'-cGAMP, 3‘,3’-cGAMP], the Kd [1] was 0.7 ± 0.3 µM, the “binding to the LaM domain by ITC (in words)” value [1] was “sub-micromolar affinity” and the “Affinity relative to A6 (site 1)” value ([1]; Table S1) was 2.8. For the same molecule, the “Affinity relative to A6 (site 2)” value ([1]; Table S1) was 440, the “ΔH (site 1)” value ([1]; Table S1) was 0 kcal/mol and the “ΔH (site 2)” value ([1]; Table S1) was 4.8 kcal/mol. The “ΔS (site 1)” value ([1]; Table S1) was 28.3 cal mol-1 K-1, the “ΔS (site 2)” value ([1]; Table S1) was 34.4 cal mol-1 K-1 and the Kd ([1]; read-out: Kd2, second site, fit with two independent sets of sites, LaM 40 μM + ligand 730-750 μM) was 110 µM. For the same molecule, the Kd ([1]; read-out: Kd (site 2), Table S1, LaM 40 (cell), ligand 730-750 (syringe)) was greater than 10 µM.

With `Nc1ncnc2c1ncn2[C@@H]1O[C@H](COP(=O)(O)O)[C@@H](OP(=O)(O)O)[C@H]1O` [3',5'-ADP, 3´,5´-ADP] the “Gln333 signal change (in words)” value ([5]; NMR titration) was “broadened the Gln333 signal beyond detection” and the “Ile364 chemical shift change (in words)” value ([5]; NMR titration) was “small shift”.

For `Nc1ncnc2c1ncn2[C@@H]1O[C@H](CO)[C@@H](OP(=O)(O)O)[C@H]1O` [3'-AMP, 3´-AMP], the “Ile364 chemical shift change (in words)” value ([5]; NMR titration) was “not appreciably shifted” and the “shift of the Ile364 peak, fold smaller than with 5´-AMP” value ([5]; NMR titration) was 30 fold.

In the case of `Nc1ncnc2c1ncn2[C@@H]1O[C@H](COP(=O)(O)O)[C@@H](O)[C@H]1O` [5'-AMP, 5´-AMP], the Kd [5] is reported as 130 µM.

In the case of `Nc1nc2c(ncn2[C@@H]2O[C@H](COP(=O)(O)O)[C@@H](O)[C@H]2O)c(=O)[nH]1` [5'-GMP, 5´-GMP], the Kd [5] is reported as 40 µM, the “shift of the Gln333 signal relative to 5´-AMP” value ([5]; at 200 µM nucleotide) is reported as “twice as much” and the binding stoichiometry ([5]; from fit of NMR chemical shift changes) is reported as 2.04.

For `Nc1nc2c(ncn2[C@@H]2O[C@@H]3CO[P@](=O)(O)O[C@H]4[C@@H](O)[C@H](n5cnc6c(=O)[nH]c(N)nc65)O[C@@H]4CO[P@](=O)(O)O[C@H]3[C@H]2O)c(=O)[nH]1` [cyclic-di-GMP, Cyclic-di-GMP], the “binding to the LaM domain by ITC (in words)” value [1] was “sub-micromolar affinity”, the “Affinity relative to A6 (site 1)” value ([1]; Table S1) was 1.2 and the “Affinity relative to A6 (site 2)” value ([1]; Table S1) was 220. For the same molecule, the “ΔH (site 1)” value ([1]; Table S1) was 0 kcal/mol, the “ΔH (site 2)” value ([1]; Table S1) was 2.0 kcal/mol and the “ΔS (site 1)” value ([1]; Table S1) was 29.8 cal mol-1 K-1. The “ΔS (site 2)” value ([1]; Table S1) was 26.5 cal mol-1 K-1, the Kd ([1]; Table S1, LaM 40 (cell), ligand 730-750 (syringe), read-out: Kd (site 1)) was 0.3 ± 0.3 µM and the Kd ([1]; Table S1, LaM 40 (cell), ligand 730-750 (syringe), read-out: Kd (site 2)) was greater than 10 µM. It also gave a Kd ([1]; second site, fit with two independent sets of sites, LaM 40 μM + ligand 730-750 μM, read-out: Kd2) of 54 µM.
